# Measurements as given in patent US20260022143A1, “Cyclic Peptide Inhibitors of IL-23” (JANSSEN PHARMACEUTICA NV, priority 2022, published 2026).
# Counter-ions that a name gives are not always drawn. Starred links: 1 amine or outer side, 2 acyl side, 3 side chain; linkers in the order of their positions; H or OH if unused. Positions of bridges follow the written chain, without caps; N, C: chain ends. Non-standard residues stand in square brackets, D forms with d. Residues, ends and D or L forms follow the SMILES beside them. *: point of attachment. Me3N+(CH2)2O(CH2)2O(CH2)2CO = C[N+](C)(C)CCOCCOCCC(=O)*; Trp(7-Me) = Cc1cccc2c(C[C@H](N)C(=O)O)c[nH]c12; Hexanoyl(6-NMe3+) = C[N+](C)(C)CCCCCC(=O)*; dLys(Me3) = C[N+](C)(C)CCCC[C@@H](N)C(=O)O; X63 = C[N+]1(C)CCC(N[*:1])(C(=O)[*:2])CC1; Dab(NMeAc) = CC(=O)N(C)CC[C@H](N)C(=O)O; 2Nal = N[C@@H](Cc1ccc2ccccc2c1)C(=O)O; AEF = NCCOc1ccc(C[C@H](N)C(=O)O)cc1; 3Pal = N[C@@H](Cc1cccnc1)C(=O)O; Lys(Me) = CNCCCC[C@H](N)C(=O)O; X7 = COCCOCCOCCOCCOCCOCCC(=O)*; Pen = CC(C)(S)[C@H](N)C(=O)O; Thp = NC1(C(=O)O)CCOCC1; Dap = NC[C@H](N)C(=O)O; Me2NCH2CH2 = CN(C)CC*; Tfa = O=C(C(F)(F)F)*; Sar = CNCC(=O)O
# Key:
# IL-23R = biological target: T1, IL-23R (Homo sapiens, UniProt Q5VWK5); assay: IL23R Reporter Assay; format: cell-based; details: HEK293 cells containing IL-23R, IL-12RP1 and STAT-inducible firefly luciferase reporter; 10 ng/mL IL-23 (EC90); 5 h at 37° C.; read-out: IL23R Reporter Assay
# T1 construct: host or cells: HEK293
# T1 sequence (Q5VWK5 24-629): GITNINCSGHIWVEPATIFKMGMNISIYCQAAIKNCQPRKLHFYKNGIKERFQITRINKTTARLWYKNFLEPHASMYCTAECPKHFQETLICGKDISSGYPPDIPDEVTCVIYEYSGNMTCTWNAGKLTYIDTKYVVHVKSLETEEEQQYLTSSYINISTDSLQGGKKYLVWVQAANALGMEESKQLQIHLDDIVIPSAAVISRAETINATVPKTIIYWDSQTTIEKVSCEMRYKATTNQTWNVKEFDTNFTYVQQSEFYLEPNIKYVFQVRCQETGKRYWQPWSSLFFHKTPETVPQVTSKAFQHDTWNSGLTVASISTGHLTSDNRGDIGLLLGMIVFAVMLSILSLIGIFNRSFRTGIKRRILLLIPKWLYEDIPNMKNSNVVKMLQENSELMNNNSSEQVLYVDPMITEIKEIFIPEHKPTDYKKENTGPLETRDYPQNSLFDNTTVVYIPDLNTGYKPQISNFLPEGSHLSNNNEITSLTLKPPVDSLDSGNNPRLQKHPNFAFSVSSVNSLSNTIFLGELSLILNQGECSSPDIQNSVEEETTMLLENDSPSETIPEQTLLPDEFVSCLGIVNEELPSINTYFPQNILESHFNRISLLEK
# [1] = Exposed Polar Surface Area (EPSA); format: physicochemical; details: SFC on Chirex 3014 column; sample 1 mM DMSO stock; read-out: EPSA
# In short: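 Chirex 3014 column, 35 °C, 4 mL/min; CO2/MeOH + 20 mM NH4 formate, 5→60% modifier at 20%/min. UV/MS detection. EPSA (Å^2) from retention time vs 8-standard calibration line; duplicates; 1 mM DMSO stock injected undiluted.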
SMILES,IC50 (IL-23R) [nM],EPSA [1] [A^2]
CC(=O)NCCCC[C@@H]1NC(=O)[C@H](Cc2c[nH]c3c(C)cccc23)NC(=O)[C@H]([C@@H](C)O)NC(=O)[C@H](CC(N)=O)NC(=O)[C@@H](NC(=O)C(F)(F)F)C(C)(C)SSC(C)(C)[C@@H](C(=O)N[C@@H](Cc2ccc(OCCN)cc2)C(=O)N[C@@H](Cc2ccc3ccccc3c2)C(=O)NC2(C(=O)N[C@@H](CCCCNC(C)=O)C(=O)N[C@@H](CC(N)=O)C(=O)N[C@@H](Cc3cccnc3)C(=O)N(C)C)CCOCC2)NC1=O [compound 63] (Tfa-[Pen]NT[Trp(7-Me)]K(Ac)[Pen][AEF][2Nal][Thp]K(Ac)N[3Pal]-NMe2; disulfide 1-6 (inferred)),25,157
COCCOCCOCCOCCOCCOCCC(=O)N[C@@H]1C(=O)N[C@@H](CC(N)=O)C(=O)N[C@@H]([C@@H](C)O)C(=O)N[C@@H](Cc2c[nH]c3c(C)cccc23)C(=O)N[C@@H](CCCCNC(C)=O)C(=O)N[C@H](C(=O)N[C@@H](Cc2ccc(OCCN)cc2)C(=O)N[C@@H](Cc2ccc3ccccc3c2)C(=O)NC2(C(=O)N[C@@H](CCCCNC(C)=O)C(=O)N[C@@H](CC(N)=O)C(=O)N[C@@H](Cc3cccnc3)C(=O)N(C)CC(N)=O)CCOCC2)C(C)(C)SSC1(C)C [compound 64] (X7-[Pen]NT[Trp(7-Me)]K(Ac)[Pen][AEF][2Nal][Thp]K(Ac)N[3Pal][Sar]-NH2; disulfide 1-6 (inferred)),4.9,160
CC(=O)N(C)CC[C@@H]1NC(=O)[C@H](Cc2c[nH]c3c(C)cccc23)NC(=O)[C@H]([C@@H](C)O)NC(=O)[C@H](CC(N)=O)NC(=O)[C@@H](NC(=O)C(F)(F)F)C(C)(C)SSC(C)(C)[C@@H](C(=O)N[C@@H](Cc2ccc(OCCN(C)C)cc2)C(=O)N[C@@H](Cc2ccc3ccccc3c2)C(=O)NC2(C(=O)N[C@@H](CCC(=O)N(C)C)C(=O)N[C@@H](CC(N)=O)C(=O)N[C@@H](Cc3cccnc3)C(=O)N(C)CC(N)=O)CCOCC2)NC1=O [compound 71] (Tfa-[Pen]NT[Trp(7-Me)][Dab(NMeAc)][Pen]Y(Me2NCH2CH2)[2Nal][Thp]E(NMe2)N[3Pal][Sar]-NH2; disulfide 1-6 (inferred)),2.1,146
CC(=O)NCCCC[C@@H]1NC(=O)[C@H](Cc2c[nH]c3c(C)cccc23)NC(=O)[C@H]([C@@H](C)O)NC(=O)[C@H](CC(N)=O)NC(=O)[C@@H](NC(=O)[C@@H](CCCC[N+](C)(C)C)NC(=O)C(F)(F)F)C(C)(C)SSC(C)(C)[C@@H](C(=O)N[C@@H](Cc2ccc(OCCN)cc2)C(=O)N[C@@H](Cc2ccc3ccccc3c2)C(=O)NC2(C(=O)N[C@@H](CCCCNC(C)=O)C(=O)N[C@@H](CC(N)=O)C(=O)N[C@@H](Cc3cccnc3)C(=O)N(C)CC(N)=O)CCOCC2)NC1=O [compound 80] (Tfa-[dLys(Me3)][Pen]NT[Trp(7-Me)]K(Ac)[Pen][AEF][2Nal][Thp]K(Ac)N[3Pal][Sar]-NH2; disulfide 2-7 (inferred)),4.3,157
CC(=O)NCCCC[C@@H]1NC(=O)[C@H](Cc2c[nH]c3c(C)cccc23)NC(=O)[C@H]([C@@H](C)O)NC(=O)[C@H](CC(N)=O)NC(=O)[C@@H](NC(=O)[C@@H](CCCCNC(=O)CCCCC[N+](C)(C)C)NC(C)=O)C(C)(C)SSC(C)(C)[C@@H](C(=O)N[C@@H](Cc2ccc(OCCN)cc2)C(=O)N[C@@H](Cc2ccc3ccccc3c2)C(=O)NC2(C(=O)N[C@@H](CCCCNC(C)=O)C(=O)N[C@@H](CC(N)=O)C(=O)N[C@@H](Cc3cccnc3)C(=O)N(C)CC(N)=O)CCOCC2)NC1=O [compound 87] (Ac-[dK](Hexanoyl(6-NMe3+))[Pen]NT[Trp(7-Me)]K(Ac)[Pen][AEF][2Nal][Thp]K(Ac)N[3Pal][Sar]-NH2; disulfide 2-7 (inferred)),4.2,159
"CC(=O)NCCCC[C@@H]1NC(=O)[C@H](Cc2c[nH]c3c(C)cccc23)NC(=O)[C@H]([C@@H](C)O)NC(=O)[C@H](CC(N)=O)NC(=O)[C@@H](NC(=O)CCOCCOCC[N+](C)(C)C)C(C)(C)SSC(C)(C)[C@@H](C(=O)N[C@@H](Cc2ccc(OCCN)cc2)C(=O)N[C@@H](Cc2ccc3ccccc3c2)C(=O)NC2(C(=O)N[C@@H](CCCCNC(C)=O)C(=O)N[C@@H](CC(N)=O)C(=O)N[C@@H](Cc3cccnc3)C(=O)N(C)CC(N)=O)CCOCC2)NC1=O [compound 90, cPEG3aCO-Pen(3)-N-T-7MeW-K(Ac)-Pen(3)-AEF-2Nal-THP-K(Ac)-N-3Pya-Sar-CONH2] ({Me3N+(CH2)2O(CH2)2O(CH2)2CO}-[Pen]NT[Trp(7-Me)]K(Ac)[Pen][AEF][2Nal][Thp]K(Ac)N[3Pal][Sar]-NH2; disulfide 1-6)",3.7,164
"Cc1cccc2c(C[C@@H]3NC(=O)[C@H]([C@@H](C)O)NC(=O)[C@H](CC(=O)N(C)C)NC(=O)[C@@H](NC(=O)[C@@H](CCCCNC(=O)CCCCC[N+](C)(C)C)NC(=O)C(F)(F)F)C(C)(C)SSC(C)(C)[C@@H](C(=O)N[C@@H](Cc4ccc(OCCN(C)C)cc4)C(=O)N[C@@H](Cc4ccc5ccccc5c4)C(=O)NC4(C(=O)N[C@@H](CCC(=O)N(C)C)C(=O)N[C@@H](CC(N)=O)C(=O)N[C@@H](Cc5cccnc5)C(=O)N(C)CC(=O)N(C)C)CCOCC4)NC(=O)[C@H](CCC(=O)N(C)C)NC3=O)c[nH]c12 [compound 96, CF3CO-k(5cpa)-Pen(3)-N(N(Me)2)-T-7MeW-Q(N(Me)2)-Pen(3)-AEF(N(Me)2)-2Nal-THP-Q(N(Me)2)-N-3Pya-Sar-CON(Me)2] (Tfa-[dK](Hexanoyl(6-NMe3+))[Pen]D(NMe2)T[Trp(7-Me)]E(NMe2)[Pen]Y(Me2NCH2CH2)[2Nal][Thp]E(NMe2)N[3Pal][Sar]-NMe2; disulfide 2-7)",4.6,139
"Cc1cccc2c(C[C@@H]3NC(=O)[C@H]([C@@H](C)O)NC(=O)[C@H](CC(=O)N(C)C)NC(=O)[C@@H](NC(=O)CCCCC[N+](C)(C)C)C(C)(C)SSC(C)(C)[C@@H](C(=O)N[C@@H](Cc4ccc(OCCN(C)C)cc4)C(=O)N[C@@H](Cc4ccc5ccccc5c4)C(=O)NC4(C(=O)N[C@@H](CCC(=O)O)C(=O)N[C@@H](CC(N)=O)C(=O)N[C@@H](Cc5cccnc5)C(=O)N(C)CC(=O)N(C)C)CCOCC4)NC(=O)[C@H](CCC(=O)N(C)C)NC3=O)c[nH]c12 [compound 97, 5cpaCO-Pen(3)-N(N(Me)2)-T-7MeW-Q(N(Me)2)-Pen(3)-AEF(N(Me)2)-2Nal-THP-E-N-3Pya-Sar-CON(Me)2] ({Hexanoyl(6-NMe3+)}-[Pen]D(NMe2)T[Trp(7-Me)]E(NMe2)[Pen]Y(Me2NCH2CH2)[2Nal][Thp]EN[3Pal][Sar]-NMe2; disulfide 1-6)",5.8,152
"CC(=O)NC[C@H](NC(=O)C1(NC(=O)[C@H](Cc2ccc3ccccc3c2)NC(=O)[C@H](Cc2ccc(OCCN(C)C)cc2)NC(=O)[C@H]2NC(=O)[C@H](CCCCN(C)C(C)=O)NC(=O)[C@H](Cc3c[nH]c4c(C)cccc34)NC(=O)[C@H]([C@@H](C)O)NC(=O)[C@H](CC(=O)N(C)C)NC(=O)[C@@H](NC(C)=O)C(C)(C)SSC2(C)C)CCOCC1)C(=O)N[C@@H](CC(N)=O)C(=O)N[C@@H](Cc1cccnc1)C(=O)N(C)CC(=O)N(C)C [compound 98, MeCO-Pen(3)-N(N(Me)2)-T-7MeW-K(NMeAc)-Pen(3)-AEF(N(Me)2)-2Nal-THP-Dap(Ac)-N-3Pya-Sar-CON(Me)2] (Ac-[Pen]D(NMe2)T[Trp(7-Me)][Lys(Me)](Ac)[Pen]Y(Me2NCH2CH2)[2Nal][Thp][Dap](Ac)N[3Pal][Sar]-NMe2; disulfide 1-6)",4.6,139
"Cc1cccc2c(C[C@@H]3NC(=O)[C@H]([C@@H](C)O)NC(=O)[C@H](CC(=O)N(C)C)NC(=O)[C@@H](NC(=O)CCCCC[N+](C)(C)C)C(C)(C)SSC(C)(C)[C@@H](C(=O)N[C@@H](Cc4ccc(OCCN(C)C)cc4)C(=O)N[C@@H](Cc4ccc5ccccc5c4)C(=O)NC4(C(=O)N[C@@H](CCC(=O)N(C)C)C(=O)N[C@@H](CC(N)=O)C(=O)N[C@@H](Cc5cccnc5)C(=O)N(C)CC(=O)N(C)C)CC[N+](C)(C)CC4)NC(=O)[C@H](CCC(=O)N(C)C)NC3=O)c[nH]c12 [compound 100, 5cpaCO-Pen(3)-N(N(Me)2)-T-7MeW-Q(N(Me)2)-Pen(3)-AEF(N(Me)2)-2Nal-Pip(NMe2)-Q(N(Me)2)-N-3Pya-Sar-CON(Me)2] ({Hexanoyl(6-NMe3+)}-[Pen]D(NMe2)T[Trp(7-Me)]E(NMe2)[Pen]Y(Me2NCH2CH2)[2Nal][X63]E(NMe2)N[3Pal][Sar]-NMe2; disulfide 1-6)",9.3,139
